Data set [1] concerns the target T1, human PAFR (Homo sapiens, UniProt P25105).
T1 construct: expressed in transfected cells; host or cells: HEK293
The data set is described as follows: cellular HTRF IP1 endpoint assay: inhibition of PAFR activation by PAF C-16 ligand. In kind it is cell-based. Particulars: HEK293 cells overexpressing human PAFR; PAF ligand 11 nM. As for the experimental part: The ability of compounds of formula (I.0) to inhibit the activation of the PAF receptor (PAFR) by the PAF C-16 ligand (PAF) is determined using the following cellular HTRF IP1 assay (IP1 Gq assay kit from Cisbio, Cat. no.: 62IP1APEJ) in assay buffer (1×HBSS, 20 mM Hepes, pH 7.4, 50 mM LiCl and containing 0.1% (w/v) BSA):
HEK293 cells overexpressing human PAFR (produced in-house) are seeded into a Poly-D-Lysine coated 384 well white cell culture microtiter assay plate with lid (15.000 cells per well). Subsequently, the plates are incubated over night at 37° C./5% CO2. On the next day, cells are being washed and subsequently, various concentrations of the test compounds (compounds in 100% DMSO; final concentration of DMSO in wells is 1%) are added to the assay plate via Echo 555 acoustic liquid handler. Plates are then incubated with lid for 90 minutes at 37° C./5% CO2. Thereafter, PAF ligand (Cayman Chemical Company, Item no.: 60900) is added at a final concentration of 11 nM. Plates are then incubated with lid for 60 minutes at 37° C./5% CO2. Then, 5 μl per well of Anti-IP1-Anti body-Cryptate solution and 5 μL per well of IP1-d2 solution are added to all wells of the plate and the plate is incubated for another 60 minutes light protected at room temperature. The emissions at 620 nm and 665 nm (Excitation wavelength: 320 nm) are measured using an Envision Reader (PerkinElmer).
Background: TR-FRET usually uses a lanthanide donor and a delayed reading to cut background.

A short description of data set [2]: aqueous solubility in buffer (from DMSO stock, 24 h shaking, LC-UV). Particulars: pH 2.2, aqueous buffer, kinetic from dmso stock.
Protocol: The aqueous solubility of the test compound is determined by comparing the amount dissolved in buffer to the amount in an ACN/water (1/1) solution. Starting from a 10 mM DMSO stock solution aliquots are diluted with ACN/water (1/1) or buffer, respectively. After 24 h of shaking, the solutions are filtrated and analyzed by LC-UV. The amount dissolved in buffer is compared to the amount in the ACN solution.
Solubility will usually be measured from 0.001 to 0.125 mg/mL at a DMSO concentration of 2.5%. If more than 90% of the compound is dissolved in buffer, the value is marked with “>”.

The term pIC50 denotes the negative decadic logarithm of the IC50, by convention in mol/L. Higher therefore signals a small IC50. Usually solubility stands for the dissolved amount per volume that the medium holds. A higher solubility goes with a readily soluble substance.

pIC50: −log10 of the molar value. Converted amounts (≈) assume the structure as drawn.

T1 sequence (P25105 whole entry): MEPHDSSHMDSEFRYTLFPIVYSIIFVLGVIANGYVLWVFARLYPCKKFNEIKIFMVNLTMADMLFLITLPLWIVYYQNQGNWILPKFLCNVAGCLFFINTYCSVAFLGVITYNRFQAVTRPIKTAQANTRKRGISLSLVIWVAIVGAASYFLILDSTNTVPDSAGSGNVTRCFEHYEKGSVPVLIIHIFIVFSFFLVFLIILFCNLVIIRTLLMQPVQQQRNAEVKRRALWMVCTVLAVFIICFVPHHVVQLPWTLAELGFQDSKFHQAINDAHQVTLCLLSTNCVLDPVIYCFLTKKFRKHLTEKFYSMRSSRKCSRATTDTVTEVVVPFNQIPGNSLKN

In turn, `Cc1nnc2n1-c1sc3c(c1[C@H](c1ccccc1Cl)NC2)C[C@H](C(=O)N1CCO[C@@H](C)C1)C3` [Example 4, (9R,13S)-9-(2-Chlorophenyl)-3-methyl-13-[(2S)-2-methylmorpholine-4-carbonyl]-16-thia-2,4,5,8-tetraazatetracyclo-[8.6.0.0^2,6.0^11,15]hexadeca-1(10)3,5,11(15)-tetraene] had a pIC50 in data set [1] of 8.17. The compound also displayed a solubility at 24 h in data set [2] greater than 113 µg/mL.
On the same counts, the results for `Cc1nnc2n1-c1sc3c(c1[C@H](c1ccccc1Cl)NC2)C[C@H](C(=O)N1C[C@@H](C)O[C@H](C)C1)C3` [Example 5] are 8.09 and 95 µg/mL (≈ 191 µM).
On the same counts, the results for `Cc1nnc2n1-c1sc3c(c1[C@H](c1ccccc1Cl)NC2)C[C@H](C(=O)N1C[C@H](C)O[C@@H](C)C1)C3` [Example 6] are 7.96 and greater than 112 µg/mL.
On the same counts, the results for `Cc1nnc2n1-c1sc3c(c1[C@H](c1ccccc1Cl)NC2)C[C@H](C(=O)NCc1ccc(C(F)(F)F)nc1)C3` [Example 7] are 8.44 and 130 µg/mL (≈ 233 µM).
The compound `Cc1nnc2n1-c1sc3c(c1[C@@H](c1ccccc1Cl)NC2)C[C@H](C(=O)NCCOC(F)(F)F)C3` [Example 8] had a negative-log IC50 (pIC50) in data set [1] of 7.26. The compound further had a solubility at 24 h in data set [2] greater than 121 µg/mL.
On the same counts, the results for `Cc1nnc2n1-c1sc3c(c1[C@@H](c1ccccc1Cl)NC2)C[C@H](C(=O)NC1CCC1)C3` [Example 9] are 7.47 and greater than 105 µg/mL.
The compound `Cc1nnc2n1-c1sc3c(c1[C@H](c1ccccc1Cl)NC2)C[C@H](C(=O)NC1(c2ccc(Cl)cn2)CC1)C3` [Example 10] had a pIC50 in data set [1] of 8.89. The compound further showed a solubility at 24 h in data set [2] greater than 140 µg/mL.
On the same counts, the results for `Cc1nnc2n1-c1sc3c(c1[C@@H](c1ccccc1Cl)NC2)C[C@H](C(=O)NCc1ccc(OC(F)F)nc1)C3` [Example 11] are 7.28 and 105 µg/mL (≈ 189 µM).
`Cc1nnc2n1-c1sc3c(c1[C@H](c1ccccc1Cl)NC2)C[C@H](C(=O)NCc1ccc(OC(F)F)nc1)C3` [Example 12]: the pIC50 in data set [1] is 8.72. Also, the solubility at 24 h in data set [2] is greater than 129 µg/mL.
On the same counts, the results for `Cc1nnc2n1-c1sc3c(c1[C@@H](c1ccccc1Cl)NC2)C[C@H](C(=O)NCc1ccc(C(F)(F)F)cc1)C3` [Example 13] are 6.55 and 88 µg/mL (≈ 158 µM).
On the same counts, the results for `Cc1nnc2n1-c1sc3c(c1[C@H](c1ccccc1Cl)NC2)C[C@H](C(=O)NCc1ccc(C(F)(F)F)cc1)C3` [Example 14] are 9.40 and 109 µg/mL (≈ 195 µM).
On the same counts, the results for `Cc1nnc2n1-c1sc3c(c1[C@H](c1ccccc1Cl)NC2)C[C@H](C(=O)NCC1CC1)C3` [Example 15] are 8.77 and greater than 113 µg/mL.
In turn, `Cc1nnc2n1-c1sc3c(c1[C@H](c1ccccc1Cl)NC2)C[C@H](C(=O)N[C@@H]1CCC(F)(F)C1)C3` [Example 16] had a negative-log IC50 (pIC50) in data set [1] of 8.85. The same compound had a solubility at 24 h in data set [2] greater than 118 µg/mL.
On the same counts, the results for `Cc1nnc2n1-c1sc3c(c1[C@H](c1ccccc1Cl)NC2)C[C@H](C(=O)N1CCC(F)(F)CC1)C3` [Example 18] are 8.51 and greater than 112 µg/mL.
On the same counts, the results for `Cc1nnc2n1-c1sc3c(c1[C@H](c1ccccc1Cl)NC2)C[C@H](C(=O)N[C@@H](C)CF)C3` [Example 20] are 8.35 and greater than 128 µg/mL.
`Cc1nnc2n1-c1sc3c(c1[C@H](c1ccccc1Cl)NC2)C[C@H](C(=O)N1CC2(CCCO2)C1)C3` [Example 22]: the pIC50 in data set [1] is 8.28. The compound also returned a solubility at 24 h in data set [2] greater than 112 µg/mL.
The compound `Cc1nnc2n1-c1sc3c(c1[C@H](c1ccccc1Cl)NC2)C[C@H](C(=O)NC1CCC(F)(F)CC1)C3` [Example 23] gave a negative logarithm of the IC50 (pIC50) in data set [1] of 8.89. The same compound displayed a solubility at 24 h in data set [2] greater than 114 µg/mL.
On the same counts, the results for `Cc1nnc2n1-c1sc3c(c1[C@H](c1ccccc1Cl)NC2)C[C@H](C(=O)N1CC(C)(C)C1)C3` [Example 24] are 8.70 and greater than 105 µg/mL.
On the same counts, the results for `Cc1noc(C)c1NC(=O)[C@@H]1Cc2sc3c(c2C1)[C@H](c1ccccc1Cl)NCc1nnc(C)n1-3` [Example 25] are 8.37 and greater than 136 µg/mL.
On the same counts, the results for `Cc1nnc2n1-c1sc3c(c1[C@H](c1ccccc1Cl)NC2)C[C@H](C(=O)N1C[C@@H](C)O[C@@H](C)C1)C3` [Example 27] are 8.26 and greater than 133 µg/mL.
Turning to `Cc1ncc2n1CCN(C(=O)[C@@H]1Cc3sc4c(c3C1)[C@H](c1ccccc1Cl)NCc1nnc(C)n1-4)C2` [Example 29], the pIC50 in data set [1] is 7.16. In addition, in data set [2], the solubility at 24 h was greater than 110 µg/mL.
On the same counts, the results for `Cc1nnc2n1-c1sc3c(c1[C@H](c1ccccc1Cl)NC2)C[C@H](C(=O)N1CC2(CCOCC2)C1)C3` [Example 30] are 7.92 and 80 µg/mL (≈ 157 µM).
On the same counts, the results for `Cc1nnc2n1-c1sc3c(c1[C@H](c1ccccc1Cl)NC2)C[C@H](C(=O)NCc1ccccc1)C3` [Example 31] are 8.96 and greater than 132 µg/mL.
Regarding `Cc1nnc2n1-c1sc3c(c1[C@H](c1ccccc1Cl)NC2)C[C@H](C(=O)N1CCC1)C3` [Example 32], the pIC50 in data set [1] was 7.47. In data set [2], the solubility at 24 h was greater than 139 µg/mL.
On the same counts, the results for `Cc1nnc2n1-c1sc3c(c1[C@H](c1ccccc1Cl)NC2)C[C@H](C(=O)NC(C)(C)CO)C3` [Example 33] are 8.55 and greater than 139 µg/mL.
On the same counts, the results for `Cc1nnc2n1-c1sc3c(c1[C@H](c1ccccc1Cl)NC2)C[C@H](C(=O)N(C)Cc1ccccc1)C3` [Example 34] are 8.68 and greater than 126 µg/mL.
On the same counts, the results for `Cc1nnc2n1-c1sc3c(c1[C@H](c1ccccc1Cl)NC2)C[C@H](C(=O)NCc1cccc(C(F)(F)F)n1)C3` [Example 35] are 8.42 and 106 µg/mL (≈ 190 µM).
For the compound `Cc1nnc2n1-c1sc3c(c1[C@H](c1ccccc1Cl)NC2)C[C@H](C(=O)NCc1ncccc1C(F)(F)F)C3` [Example 36], in data set [1], the pIC50 was 8.52. In data set [2], this compound showed a solubility at 24 h of 95 µg/mL (≈ 170 µM).
On the same counts, the results for `Cc1nnc2n1-c1sc3c(c1[C@H](c1ccccc1Cl)NC2)C[C@H](C(=O)NCc1cc(C(F)(F)F)ccn1)C3` [Example 37] are 8.54 and 100 µg/mL (≈ 179 µM).
On the same counts, the results for `Cc1nnc2n1-c1sc3c(c1[C@H](c1ccccc1Cl)NC2)C[C@H](C(=O)NCc1ccc(C(F)(F)F)cn1)C3` [Example 38] are 8.85 and 108 µg/mL (≈ 193 µM).
On the same counts, the results for `Cc1nnc2n1-c1sc3c(c1[C@H](c1ccccc1Cl)NC2)C[C@H](C(=O)NCc1cscn1)C3` [Example 39] are 7.22 and greater than 110 µg/mL.
`Cc1nnc2n1-c1sc3c(c1[C@H](c1ccccc1Cl)NC2)C[C@H](C(=O)NCc1nccs1)C3` [Example 40] gave a pIC50 in data set [1] of 7.08. In data set [2], the solubility at 24 h is greater than 111 µg/mL.
In data set [1], `COc1ccc(CNC(=O)[C@@H]2Cc3sc4c(c3C2)[C@H](c2ccccc2Cl)NCc2nnc(C)n2-4)cn1` [Example 41] gave a pIC50 of 7.96. Further, in data set [2], the solubility at 24 h was greater than 119 µg/mL.
On the same counts, the results for `Cc1nnc2n1-c1sc3c(c1[C@H](c1ccccc1Cl)NC2)C[C@H](C(=O)NCc1cncnc1)C3` [Example 42] are 6.86 and greater than 121 µg/mL.
On the same counts, the results for `Cc1nnc2n1-c1sc3c(c1[C@H](c1ccccc1Cl)NC2)C[C@H](C(=O)NCc1cncc(C(F)(F)F)c1)C3` [Example 43] are 8.59 and 104 µg/mL (≈ 186 µM).
On the same counts, the results for `Cc1nnc2n1-c1sc3c(c1[C@H](c1ccccc1Cl)NC2)C[C@H](C(=O)NCc1ccnnc1)C3` [Example 44] are 7.39 and greater than 112 µg/mL.
As for `Cc1nnc2n1-c1sc3c(c1[C@H](c1ccccc1Cl)NC2)C[C@H](C(=O)NCc1ccnc(C(F)(F)F)c1)C3` [Example 45], the pIC50 in data set [1] is 8.72. This compound also came in with a solubility at 24 h in data set [2] greater than 140 µg/mL.
`Cc1nnc2n1-c1sc3c(c1[C@H](c1ccccc1Cl)NC2)C[C@H](C(=O)NCc1cnc(C(F)(F)F)nc1)C3` [Example 46]: the pIC50 in data set [1] was 8.20. In data set [2], the concentration in solution (solubility at 24 h) came to 112 µg/mL (≈ 200 µM).
`Cc1ncc(CNC(=O)[C@@H]2Cc3sc4c(c3C2)[C@H](c2ccccc2Cl)NCc2nnc(C)n2-4)s1` [Example 47] had a pIC50 in data set [1] of 7.92. In addition, in data set [2], the solubility at 24 h was greater than 115 µg/mL.
On the same counts, the results for `Cc1ncsc1CNC(=O)[C@@H]1Cc2sc3c(c2C1)[C@H](c1ccccc1Cl)NCc1nnc(C)n1-3` [Example 48] are 7.82 and greater than 128 µg/mL.
On the same counts, the results for `Cc1nnc2n1-c1sc3c(c1[C@H](c1ccccc1Cl)NC2)C[C@H](C(=O)NCc1ccc(Cl)cn1)C3` [Example 49] are 8.72 and 101 µg/mL (≈ 192 µM).
On the same counts, the results for `CCC12CC(NC(=O)[C@@H]3Cc4sc5c(c4C3)[C@H](c3ccccc3Cl)NCc3nnc(C)n3-5)(C1)C2` [Example 50] are 9.30 and 98 µg/mL (≈ 198 µM).

(Values after US11766443B2, “Cyclopentathiophene carboxamide derivatives as platelet activating factor receptor antagonists” (Boehringer Ingelheim International GmbH, priority 2021, dated 2023).)
